Experimental data taken from US20260355196A1, “INHIBITORS AND DEGRADERS OF PIP4K PROTEIN” (Larkspur Biosciences, Inc., priority 2023, published 2026).

target: T1, PIP4K2C (Homo sapiens, UniProt Q8TBX8); test: HiBiT PIP4K2C degradation assay in MOLT-4 cells (endogenous PIP4K2C C-terminally tagged with HiBiT); type: cell-based; parameters: untagged in primary human PBMCs and monocyte-derived dendritic cells; conditions: 24 hours incubation, MOLT-4, top concentration 10 micromolar; read-out: HiBIT-degradation MOLT4 PIP4k2C 24 hours DC50
T1 sequence (Q8TBX8 1-421): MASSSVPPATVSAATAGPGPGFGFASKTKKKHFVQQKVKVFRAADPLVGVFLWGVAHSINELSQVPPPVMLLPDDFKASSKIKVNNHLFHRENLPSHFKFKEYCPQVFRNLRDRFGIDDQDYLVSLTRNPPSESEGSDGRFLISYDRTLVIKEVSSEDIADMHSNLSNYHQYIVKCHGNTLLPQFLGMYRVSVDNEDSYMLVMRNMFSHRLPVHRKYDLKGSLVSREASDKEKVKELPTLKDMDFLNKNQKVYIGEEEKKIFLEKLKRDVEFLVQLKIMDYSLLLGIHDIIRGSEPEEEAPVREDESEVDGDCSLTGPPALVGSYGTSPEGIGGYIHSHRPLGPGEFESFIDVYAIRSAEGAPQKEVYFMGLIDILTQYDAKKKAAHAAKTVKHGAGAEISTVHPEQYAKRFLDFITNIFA
Outline: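 Cells are plated onto compound dilutions (10 points, 3-fold, top 10 micromolar) and incubated 24 or 6 hours at 37 C. Lytic HiBiT detection then quantifies tagged endogenous PIP4K2C in MOLT-4, and a Hill fit yields DC50.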

| DC50 [µM] | SMILES |
| --- | --- |
| 0.5 to 1 | O=C1CCC(Nc2ccc(C3CCN(CC4CCN(CC(=O)N5CCC(Nc6ncc(Cl)c(-c7cccc(-c8ccccc8)c7)n6)CC5)CC4)CC3)cc2)C(=O)N1 (centres unmarked) [Compound 53, 3-((4-(1-((1-(2-(4-((4-([1,1′-biphenyl]-3-yl)-5-chloropyrimidin-2-yl)amino)piperidin-1-yl)-2-oxoethyl)piperidin-4-yl)methyl)piperidin-4-yl)phenyl)amino)piperidine-2,6-dione] |
| < 0.5 | O=C1CCC(N2Cc3cc(C4CCN(C(=O)CN5CCC(C(=O)N6CCC(Nc7ncc(Cl)c(-c8cccc(-c9ccccc9)c8)n7)CC6)CC5)CC4)ccc3C2=O)C(=O)N1 (centres unmarked) [Compound 56, 3-(5-(1-(2-(4-(4-((4-([1,1′-biphenyl]-3-yl)-5-chloropyrimidin-2-yl)amino)piperidine-1-carbonyl)piperidin-1-yl)acetyl)piperidin-4-yl)-1-oxoisoindolin-2-yl)piperidine-2,6-dione] |
| 0.5 to 1 | O=C(COc1cccc2c1C(=O)N(C1CCC(=O)NC1=O)C2=O)NCCCCCCCCCC(=O)N1CCC(Nc2ncc(Cl)c(-c3cccc(-c4ccccc4)c3)n2)CC1 (centres unmarked) [Compound 66, N-(10-(4-((4-([1,1′-biphenyl]-3-yl)-5-chloropyrimidin-2-yl)amino)piperidin-1-yl)-10-oxodecyl)-2-((2-(2,6-dioxopiperidin-3-yl)-1,3-dioxoisoindolin-4-yl)oxy)acetamide] |
| < 0.5 | O=C(COc1ccc2c(c1)CN(C1CCC(=O)NC1=O)C2=O)NCCC(=O)N1CCC(C(=O)N2CCC(Nc3ncc(Cl)c(-c4cccc(-c5ccccc5)c4)n3)CC2)CC1 (centres unmarked) [Compound 67, N-(3-(4-(4-((4-([1,1′-biphenyl]-3-yl)-5-chloropyrimidin-2-yl)amino)piperidine-1-carbonyl)piperidin-1-yl)-3-oxopropyl)-2-((2-(2,6-dioxopiperidin-3-yl)-1-oxoisoindolin-5-yl)oxy)acetamide] |
| < 0.5 | O=C(COc1ccc2c(c1)CN(C1CCC(=O)NC1=O)C2=O)NCCCC(=O)N1CCC(C(=O)N2CCC(Nc3ncc(Cl)c(-c4cccc(-c5ccccc5)c4)n3)CC2)CC1 (centres unmarked) [Compound 68, N-(4-(4-(4-((4-([1,1′-biphenyl]-3-yl)-5-chloropyrimidin-2-yl)amino)piperidine-1-carbonyl)piperidin-1-yl)-4-oxobutyl)-2-((2-(2,6-dioxopiperidin-3-yl)-1-oxoisoindolin-5-yl)oxy)acetamide] |
| < 0.5 | O=C(COc1cccc2c1CN(C1CCC(=O)NC1=O)C2=O)NCCCCC(=O)N1CCC(C(=O)N2CCC(Nc3ncc(Cl)c(-c4cccc(-c5ccccc5)c4)n3)CC2)CC1 (centres unmarked) [Compound 69, N-(5-(4-(4-((4-([1,1′-biphenyl]-3-yl)-5-chloropyrimidin-2-yl)amino)piperidine-1-carbonyl)piperidin-1-yl)-5-oxopentyl)-2-((2-(2,6-dioxopiperidin-3-yl)-1-oxoisoindolin-4-yl)oxy)acetamide] |
| < 0.5 | O=C1CCC(N2Cc3cc(C4CCN(C5CCN(CC(=O)N6CCC[C@H](Nc7ncc(Cl)c(-c8cccc(-c9ccccc9)c8)n7)C6)CC5)CC4)ccc3C2=O)C(=O)N1 (stereo partly drawn) [Compound 70, 3-(5-(1′-(2-((S)-3-((4-([1,1′-biphenyl]-3-yl)-5-chloropyrimidin-2-yl)amino)piperidin-1-yl)-2-oxoethyl)-[1,4′-bipiperidin]-4-yl)-1-oxoisoindolin-2-yl)piperidine-2,6-dione] |
| < 0.5 | O=C1CCC(N2Cc3cc(C4CCN(C5CCN(CC(=O)N6CCC(Nc7ncc(Cl)c(-c8cccc(-c9ccccc9)c8)n7)CC6)CC5)CC4)ccc3C2=O)C(=O)N1 (centres unmarked) [Compound 71, 3-(5-(1′-(2-(4-((4-([1,1′-biphenyl]-3-yl)-5-chloropyrimidin-2-yl)amino)piperidin-1-yl)-2-oxoethyl)-[1,4′-bipiperidin]-4-yl)-1-oxoisoindolin-2-yl)piperidine-2,6-dione] |
| < 0.5 | Cn1c(=O)n(C2CCC(=O)NC2=O)c2ccc(C3CCN(C4CCN(CC(=O)N5CCC(Nc6ncc(Cl)c(-c7cccc(-c8ccccc8)c7)n6)CC5)CC4)CC3)cc21 (centres unmarked) [Compound 72, 3-(5-(1′-(2-(4-((4-([1,1′-biphenyl]-3-yl)-5-chloropyrimidin-2-yl)amino)piperidin-1-yl)-2-oxoethyl)-[1,4′-bipiperidin]-4-yl)-3-methyl-2-oxo-2,3-dihydro-1H-benzo[d]imidazol-1-yl)piperidine-2,6-dione] |
| < 0.5 | Cn1c(=O)n(C2CCC(=O)NC2=O)c2ccc(C3CCN(CC4CCN(CC(=O)N5CCC[C@H](Nc6ncc(Cl)c(-c7cccc(-c8ccccc8)c7)n6)C5)CC4)CC3)cc21 (stereo partly drawn) [Compound 73, 3-(5-(1-((1-(2-((S)-3-((4-([1,1′-biphenyl]-3-yl)-5-chloropyrimidin-2-yl)amino)piperidin-1-yl)-2-oxoethyl)piperidin-4-yl)methyl)piperidin-4-yl)-3-methyl-2-oxo-2,3-dihydro-1H-benzo[d]imidazol-1-yl)piperidine-2,6-dione] |
| < 0.5 | O=C1CCC(Nc2ccc(C3CCN(CCN4CCC(C(=O)N5CCC(Nc6ncc(Cl)c(-c7cccc(-c8ccccc8)c7)n6)CC5)CC4)CC3)cc2)C(=O)N1 (centres unmarked) [Compound 74, 3-((4-(1-(2-(4-(4-((4-([1,1′-biphenyl]-3-yl)-5-chloropyrimidin-2-yl)amino)piperidine-1-carbonyl)piperidin-1-yl)ethyl)piperidin-4-yl)phenyl)amino)piperidine-2,6-dione] |
| < 0.5 | Cn1c(=O)n(C2CCC(=O)NC2=O)c2ccc(C3CCN(C4CCN(CC(=O)N5CCC[C@H](Nc6ncc(Cl)c(-c7cccc(-c8ccccc8)c7)n6)C5)CC4)CC3)cc21 (stereo partly drawn) [Compound 75, 3-(5-(1′-(2-((S)-3-((4-([1,1′-biphenyl]-3-yl)-5-chloropyrimidin-2-yl)amino)piperidin-1-yl)-2-oxoethyl)-[1,4′-bipiperidin]-4-yl)-3-methyl-2-oxo-2,3-dihydro-1H-benzo[d]imidazol-1-yl)piperidine-2,6-dione] |
| < 0.5 | O=C1CCC(N2Cc3cc(C4CCN(CCN5CCC(C(=O)N6CCC[C@H](Nc7ncc(Cl)c(-c8cccc(-c9ccccc9)c8)n7)C6)CC5)CC4)ccc3C2=O)C(=O)N1 (some centres unmarked) [Compound 78] |
| < 0.5 | O=C1CCC(N2Cc3cc(OC4CCN(C(=O)CN5CCC(C(=O)N6CCC(Nc7ncc(Cl)c(-c8cccc(-c9ccccc9)c8)n7)CC6)CC5)CC4)ccc3C2=O)C(=O)N1 (centres unmarked) [Compound 83, 3-(5-((1-(2-(4-(4-((4-([1,1′-biphenyl]-3-yl)-5-chloropyrimidin-2-yl)amino)piperidine-1-carbonyl)piperidin-1-yl)acetyl)piperidin-4-yl)oxy)-1-oxoisoindolin-2-yl)piperidine-2,6-dione] |
| < 0.5 | O=C1CCC(Nc2ccc(N3CCC(N4CCN(CCC(=O)N5CCC(Nc6ncc(Cl)c(-c7cccc(-c8ccccc8)c7)n6)CC5)CC4)CC3)cc2)C(=O)N1 (centres unmarked) [Compound 84, 3-((4-(4-(4-(3-(4-((4-([1,1′-biphenyl]-3-yl)-5-chloropyrimidin-2-yl)amino)piperidin-1-yl)-3-oxopropyl)piperazin-1-yl)piperidin-1-yl)phenyl)amino)piperidine-2,6-dione] |
| < 0.5 | O=C1CCC(N2Cc3cc(OC4CCN(CC5CCN(CC(=O)N6CCC(Nc7ncc(Cl)c(-c8cccc(-c9ccccc9)c8)n7)CC6)CC5)CC4)ccc3C2=O)C(=O)N1 (centres unmarked) [Compound 85, 3-(5-((1-((1-(2-(4-((4-([1,1′-biphenyl]-3-yl)-5-chloropyrimidin-2-yl)amino)piperidin-1-yl)-2-oxoethyl)piperidin-4-yl)methyl)piperidin-4-yl)oxy)-1-oxoisoindolin-2-yl)piperidine-2,6-dione] |
| 0.5 to 1 | O=C1CCC(N2Cc3cc(C4CCN(C5CCN(CCC(=O)N6CCC(Nc7ncc(Cl)c(-c8cccc(-c9ccccc9)c8)n7)CC6)CC5)CC4)ccc3C2=O)C(=O)N1 (centres unmarked) [Compound 86, 3-(5-(1′-(3-(4-((4-([1,1′-biphenyl]-3-yl)-5-chloropyrimidin-2-yl)amino)piperidin-1-yl)-3-oxopropyl)-[1,4′-bipiperidin]-4-yl)-1-oxoisoindolin-2-yl)piperidine-2,6-dione] |
| < 0.5 | O=C1CCC(N2Cc3cc(OC4CCN(C5CCN(CC(=O)N6CCC(Nc7ncc(Cl)c(-c8cccc(-c9ccccc9)c8)n7)CC6)CC5)CC4)ccc3C2=O)C(=O)N1 (centres unmarked) [Compound 87, 3-(5-((1′-(2-(4-((4-([1,1′-biphenyl]-3-yl)-5-chloropyrimidin-2-yl)amino)piperidin-1-yl)-2-oxoethyl)-[1,4′-bipiperidin]-4-yl)oxy)-1-oxoisoindolin-2-yl)piperidine-2,6-dione] |
| < 0.5 | O=C1CCC(N2Cc3cc(C4CCN(CCN5CCC(C(=O)N6CCC(Nc7ncc(Cl)c(-c8cccc(-c9ccccc9)c8)n7)CC6)CC5)CC4)ccc3C2=O)C(=O)N1 (centres unmarked) [Compound 88, 3-(5-(1-(2-(4-(4-((4-([1,1′-biphenyl]-3-yl)-5-chloropyrimidin-2-yl)amino)piperidine-1-carbonyl)piperidin-1-yl)ethyl)piperidin-4-yl)-1-oxoisoindolin-2-yl)piperidine-2,6-dione] |
| < 0.5 | O=C1CCC(N2Cc3cc(OC4CCN(CCN5CCC(C(=O)N6CCC(Nc7ncc(Cl)c(-c8cccc(-c9ccccc9)c8)n7)CC6)CC5)CC4)ccc3C2=O)C(=O)N1 (centres unmarked) [Compound 89, 3-(5-((1-(2-(4-(4-((4-([1,1′-biphenyl]-3-yl)-5-chloropyrimidin-2-yl)amino)piperidine-1-carbonyl)piperidin-1-yl)ethyl)piperidin-4-yl)oxy)-1-oxoisoindolin-2-yl)piperidine-2,6-dione] |
